Test results published in patent publication US4150146A, “Process for the preparation of unsymmetrically 1,3-disubstituted nitroso ureas” (priority 1976, dated 1979).

What was measured:
rat leukaemia L 5222 = test: Chemotherapeutic activity against rat leukaemia L 5222 (cures); assay type: in vivo; details: for L 5222 cures %: 50% of the acute LD50 i.p., treatment on day 6 after transplantation of 5 × 10^6 cells, rats surviving 60 days after treatment considered cured
Text: (§1) The chemotherapeutic activity of Compounds 1 to 8 against rat leukaemia L 5222 and s.c. Walker carcinosarcoma is shown in the accompanying Table II, together with that of still another BCNU analog and of BCNU itself.
(§2) The chemotherapeutic activity of Compounds 1 to 8,
(§3) another analog of BCNU, and BCNU against rat leukaemia
(§4) L 5222 and s.c. Walker carcinosarcoma
(§5) ^1 50% of the acute LD50 were given i.p.
^2 Treatment on day 6 after transplantation of 5 × 10^6
^3 Rats surviving 60 days after treatment were considered cured.

[1] = test system: s.c. Walker carcinosarcoma; test: Chemotherapeutic activity against s.c. Walker carcinosarcoma (tumor weight inhibition); assay type: in vivo, rat (Sprague Dawley); details: for s.c. Walker T.W.I.% (tumor weight inhibition): 50% of the acute LD50 i.p., treatment on day 4 after transplantation, T.W.I. on day 8, 10 Sprague Dawley rats per group
Text: as §1, §2, §3, §4, §5
^4 Treatment on day 4 after transplantation. Each group consisted of
10 Sprague Dawley vats.
^5 T.W.I. corresponds to tumor weight inhibition in % on day 8,?

Stability = assay type: physicochemical; details: liquid compounds
[2] = test system: autochthonic DMBA-induced mammary carcinoma; test: Animal test against autochthonic DMBA-induced mammary carcinoma; assay type: in vivo, rat; details: in words; for activity against autochthonic DMBA-induced mammary carcinoma relative to Adriamycin / BCNU: comparison with Adriamycin (and BCNU)
[3] = Solubility in water (or tissue fluids); assay type: physicochemical; details: comparison with BCNU, in words
Delayed toxicity = assay type: in vivo; details: contrary to BCNU; preliminary

| Structure (SMILES) | L 5222 cures % (rat leukaemia L 5222) [%] | s.c. Walker T.W.I.% (tumor weight inhibition) [1] [%] | further results |
| --- | --- | --- | --- |
| Cc1ccc(NC(=O)N(CCCl)N=O)cc1NC(=O)N(CCCl)N=O [1,1'-(4-methyl-m-phenylene)bis-CNU] | 0 | 35 |  |
| O=NN(CCCl)C(=O)NCCCl [BCNU, 1,3-bis-(2-chloroethyl)-1-nitroso urea, reference compound] | 70 | 83 |  |
| O=NN(CCCl)C(=O)NCCNC(=O)N(CCCl)N=O [Compound 1, 1,1'-ethylenebis-CNU] | 60 | 75 |  |
| O=NN(CCCl)C(=O)NCCCNC(=O)N(CCCl)N=O [Compound 2, 1,1'-propylenebis-CNU] | 60 | 72 |  |
| O=NN(CCCl)C(=O)NCCCCNC(=O)N(CCCl)N=O [Compound 3, 1,1'-tetramethylenebis-CNU] | 75 | 77 |  |
| O=NN(CCCl)C(=O)NCCCCCNC(=O)N(CCCl)N=O [Compound 4, 1,1'-pentamethylenebis-CNU] | 30 | 68 |  |
| O=NN(CCCl)C(=O)NCCCCCCNC(=O)N(CCCl)N=O [Compound 5, 1,1'-hexamethylenebis-CNU] | 50 | 70 |  |
| O=NN(CCCl)C(=O)NCCO [Compound 6, 1-(2-hydroxyethyl)-3-(2-chloroethyl)-3-nitroso urea] | 90 | 85 | chemotherapeutic activity against rat leukaemia L 5222 and s.c. Walker carcinosarcoma (in words) (rat leukaemia L 5222; summary of Table II, both tumor models): outstanding activity |
| O=NN(CCCl)C(=O)NCCCO [Compound 7, 1-(3-hydroxypropyl)-CNU] | 10 | 0 | stability (for elementary analysis) (Stability): not stable enough for elementary analysis |
| O=NN(CCCl)C(=O)NCCCCO [Compound 8, 1-(4-hydroxybutyl)-CNU] | 5 | 4 | stability (for elementary analysis) (Stability): not stable enough for elementary analysis |
| CS(=O)(=O)OCCNC(=O)N(CCCl)N=O [Compound 9] |  |  | activity against rat autochthonic DMBA-induced mammary carcinoma ([2]; animal test): excellent activity; activity against autochthonic DMBA-induced mammary carcinoma relative to Adriamycin / BCNU [2]: significantly exceeding that of "Adriamycin" |
| NC(=O)CNC(=O)N(CCCl)N=O [Compound 10, 2-(3-(2-chloroethyl))-3-nitrosoureido acetamide] |  |  | activity against s.c. Walker carcinosarcoma relative to BCNU ([1]; preliminary animal test, comparison with BCNU): same activity against s.c. Walker carcinosarcoma as BCNU; activity against autochthonic DMBA-induced mammary carcinoma relative to Adriamycin / BCNU [2]: better activity than "Adriamycin" or BCNU; solubility in water relative to BCNU [3]: better solubility in water; delayed toxicity (Delayed toxicity): little delayed toxicity |
